According to patent US11504330B2, “Formulation comprising particles containing a water-swellable or water-soluble polymeric component and a lipid component” (PERORA GMBH, priority 2014, dated 2022):

Assay: Tryptophan release / dissolution in fasted-state simulated gastric fluid (FaSSGF)
Type: physicochemical
Conditions: 30 mg powder in 22 mL FaSSGF, 37° C., agitated
Experimental: FaSSGF was prepared by dissolving 1 g of NaCl (Sigma-Aldrich) in 450 mL of water, adding 30 mg of SIF powder (biorelvant.com), adjusting the pH to 2.0 with 0.1 N HCl (Sigma-Aldrich) and adding water to a final volume of 500 mL.
30 mg of tryptophan powder were suspended in 22 mL FaSSGF at 37° C. and agitated (shaker ST5 from CAT, Germany). Aliquots were removed at time intervals of 5 min, and tryptophan concentration was quantified using absorption measurement at a wavelength of 280 nm in a NanoDrop® 2000 device (Thermo Scientific, USA).

N[C@@H](Cc1c[nH]c2ccccc12)C(=O)O [Tryptophan, L-Tryptophan]
time after which quantitatively dissolved: 10 min
